Where two headings read alike, the source gives them in different places.
Tests used:
[1] = target: T1, CCK receptor (Pancreas) (Rattus norvegicus, UniProt P30551); assay: CCK Receptor Binding (Pancreas), displacement of 125I-CCK-8; parameters: species or system rat (male Sprague-Dawley); details: 125I-CCK-8 50 pM, rat pancreas membranes; for IC50: 25° C., 2 hours
T1 construct: The whole pancreas was dissected free of fat tissue and was homogenized; from tissue; host or cells: rat whole pancreas (male Sprague-Dawley), membrane homogenate
T1 sequence (P30551 1-444): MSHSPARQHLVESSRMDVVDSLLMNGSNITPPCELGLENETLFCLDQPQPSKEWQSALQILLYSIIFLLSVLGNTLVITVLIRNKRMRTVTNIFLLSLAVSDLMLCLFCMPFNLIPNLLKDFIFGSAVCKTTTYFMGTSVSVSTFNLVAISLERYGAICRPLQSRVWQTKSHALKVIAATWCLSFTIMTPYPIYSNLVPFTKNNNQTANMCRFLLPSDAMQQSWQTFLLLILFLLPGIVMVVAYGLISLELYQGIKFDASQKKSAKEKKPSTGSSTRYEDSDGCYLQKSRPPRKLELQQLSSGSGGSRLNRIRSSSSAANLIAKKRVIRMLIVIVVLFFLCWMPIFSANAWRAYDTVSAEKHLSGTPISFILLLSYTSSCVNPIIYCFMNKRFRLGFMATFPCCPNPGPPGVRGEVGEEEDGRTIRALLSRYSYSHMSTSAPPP
Method: CCK-8 sulphated was radiolabelled with ^125 I-Bolton Hunter reagent (2000 Ci/mmole). Receptor binding was performed according to Chang and Lotti (Proc. Natl. Acad. Sci. 83, 4923-4926, 1986) with minor modifications.
Male Sprague-Dawley rats (150-200 g) were sacrificed by decapitation. The whole pancreas was dissected free of fat tissue and was homogenized in 25 volumes of ice-cold 10 mM N-2-hydroxyethyl-piperazine-N'-2-ethane sulphonic acid (HEPES) buffer with 0.1% soya bean trypsin inhibitor (pH 7.4 at 25° C. ) with a Kinematica Polytron. The homogenates were centrifuged at 47,800 g for 10 min. Pellets were resuspended in 10 volumes of binding assay buffer (20mM (HEPES)), 1 mM ethylene glycol-bis-(β-aminoethylether-N,N'-tetraacetic acid) (EGTA), 5 mM MgCl2, 150 mM NaCl, bacitracin 0.25 mg/ml, soya bean trypsin inhibitor 0.1 mg/ml, and bovine serum albumin 2 mg/ml pH 6.5 at 25° C.) using a Teflon (trademark). homogenizer, 15 strokes at 500 rpm. The homogenate was further diluted in binding assay buffer to give a final concentration of 0.5 mg original wet weight/1 ml buffer. […] All assays were run in.duplicate. The reaction mixtures were incubated at 25° C. for 2 hours and the reaction terminated by rapid filtration (Brandell 24 well cell harvester) over Whatman GF/C filters, washing 3×4 mls with ice-cold 100 Mm NaCl. The radioactivity on the filters was counted with a LKB gamma counter.
(§1) Drug displacement studies were performed with at least 10 concentrations of compounds of Formula I and the IC50 values were determined by regression analysis IC50 refers to the concentration of the compound required to inhibit 50% of specific binding of ^125 I-CCK-8.

[2] = target: T2, CCK receptor (Brain) (Cavia porcellus, UniProt H0VZC5); assay: biochemical; format: binding, guinea pig (male Hartley), cortex
T2 construct: the cortex was removed and homogenized in 25 mL ice-cold 0.32M sucrose; from tissue; host or cells: guinea pig cortex (male Hartley), P2 membrane pellet
T2 sequence (H0VZC5 1-426): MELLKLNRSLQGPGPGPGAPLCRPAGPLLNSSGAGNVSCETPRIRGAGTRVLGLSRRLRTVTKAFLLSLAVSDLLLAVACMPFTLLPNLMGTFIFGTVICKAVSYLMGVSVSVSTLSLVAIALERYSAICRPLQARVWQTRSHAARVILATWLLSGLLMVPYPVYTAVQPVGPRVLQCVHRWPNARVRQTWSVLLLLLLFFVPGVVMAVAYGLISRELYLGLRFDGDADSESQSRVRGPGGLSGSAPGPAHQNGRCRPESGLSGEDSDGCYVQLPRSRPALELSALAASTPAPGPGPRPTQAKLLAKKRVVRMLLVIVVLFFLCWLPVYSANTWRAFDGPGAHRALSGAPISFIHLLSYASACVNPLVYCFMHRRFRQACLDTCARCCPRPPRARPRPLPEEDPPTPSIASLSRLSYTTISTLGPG
Method: CCK-8 sulphated was radiolabelled and the binding was performed according to the description for the pancreas method with minor modifications.
Male Hartley guinea pigs (300-500 g) were sacrificed by decapitation and the cortex was removed and homogenized in 25 mL ice-cold 0.32M sucrose. The homogenates were centrifuged at 1000 g for 10 minutes and the resulting supernatant was recentrifuged at 20,000 g for 20 minutes. The P2 pellet was resuspended in binding assay buffer (20 mM HEPES, 5 mM MgCl2, 0.25 mg/ml bacitracin, 1 mM EGTA pH 6.5 at 25° C. ), using a Teflon (trademark) homogenizer (5 strokes at 500 rpm) to give a final concentration of 10 mg original wet weight/1.2 ml buffer. […] All assays were run in duplicate. The reaction mixtures were incubated at 25° C. for 2 hours and then the reaction was terminated by rapid filtration (Brandell 24 well cell harvester) on Whatman GF/C filters with 3×5 ml washes of cold 100 mM NaCl. The radioactivity on the filters was counted with a LKB gamma counter.
as §1

[3] = target: T3, Gastrin receptor (Cavia porcellus, UniProt H0VZC5); assay: Gastrin Receptor Binding in Guinea Pig Gastric Glands, displacement of 125I-gastrin; parameters: species or system guinea pig (male Hartley); details: 125I-gastrin 0.1 nM, 25° C., 30 minutes
T3 construct: from tissue; host or cells: guinea pig gastric mucosal glands (male Hartley), isolated with collagenase
T3 sequence (H0VZC5 1-426): T2 sequence (H0VZC5 1-426)
Method: Gastrin antagonist activity of compounds of Formula I was determined using the following assay.
Guinea pig gastric mucosal glands were prepared by the procedure of Chang et. al., Science, 230, 177-179 (1985) with slight modifications. […] The tissues were passed twice through a 5 ml syringe to liberate the gastric glands, and then filtered through Nitex (trademark) #202 gauge nylon mesh. The filtered glands were centrifuged at 272 g for 5 minutes and washed twice by resuspension in 25 ml buffer and centrifugation.
The washed guinea pig gastric glands prepared as above were resuspended in 25 ml of standard buffer. For binding studies, to 250 μl of gastric glands, 30 μl of buffer (for total binding) or gastrin (3 μM final concentration, for nonspecific binding) or test compound and 20 μl of ^125 I-gastrin (NEN, 2200 Ci/mmole, 0.1 nM final concentration) were added. All assays were run in triplicate. […] The reaction mixtures, after incubation at 25° C. for 30 minutes in a shaking water bath were rapidly filtered (Brandell 24 well cell harvester) over Whatman G/F B filters presoaked in assay buffer and immediately washed further with 3×4 ml of 100 mM ice cold NaCl. The radioactivity on the filters was measured using a LKB gamma counter.

[4] = 125I-CCK-8 50 pM, guinea pig cortex membranes, 25° C., 2 hours, read-out: IC50, 125I-CCK Brain

| IC50 [2, 4] [nM] | % (inhibition of 125I-CCK binding) Pancreas ([1]; at 3 μM) [%] | IC50 [3] [nM] | Structure (SMILES) | IC50 [1] [nM] | IC50 [2] [nM] |
| --- | --- | --- | --- | --- | --- |
| – | – | – | CN1C(=O)C(NC(=O)Nc2cccc([S+](C)[O-])c2)N=C(C2CCCCC2)c2ccccc21 (racemic) [Example 42, N-[3(R,S)-5-Cyclohexyl-2,3-dihydro-1-methyl-2-oxo-1H-1,4-benzodiazepin-3-yl]N'-[3(R,S)-(methylsulphinyl)phenyl]urea] | 18 | 15 |
| 6.8 | – | – | CN1C(=O)C(NC(=O)Nc2cccc(S(=O)(=O)Nc3cnccn3)c2)N=C(C2CCCCC2)c2ccccc21 (racemic) [Example 22, N-[3(R,S)-5-Cyclohexyl-2,3-dihydro-1-methyl-2-oxo-1H-1,4-benzodiazepin-3-yl] N'-[3-(2-pyrazinylaminosulphonyl)phenyl]urea] | 70 | – |
| – | 27 | – | CC(C)CN1C(=O)C(NC(=O)Nc2cccc(-c3nn[nH]n3)c2)N=C(C2CCCCC2)c2ccccc21 (racemic) [Example 2, N-[3(R,S)-5-Cyclohexyl-2,3-dihydro-1-(2-methylpropyl)-2-oxo-1H-1,4-benzodiazepin-3-yl] N'-[3-tetrazol-5-ylphenyl]urea] | – | – |
| 0.56 | – | 1.18 | CN1C(=O)C(NC(=O)Nc2cccc(C(=O)NS(=O)(=O)C(C)(C)C)c2)N=C(C2CCCC2)c2ccccc21 (racemic) [Example 39, N-[3(R,S)-5-Cyclopentyl-2,3-dihydro-1-methyl-2-oxo-1H-1,4-benzodiazepin-3-yl]N'-[3-(1,1-dimethylethylsulphonylaminocarbonyl)phenylurea] | 270 | – |

| Structure (SMILES) | IC50 [2, 4] [nM] | % (inhibition of 125I-CCK binding) Pancreas ([1]; at 3 μM) [%] | IC50 [3] [nM] | IC50 [1] [nM] | IC50 [2] [nM] |
| --- | --- | --- | --- | --- | --- |
| CN1C(=O)C(NC(=O)Nc2cccc(C(=O)NS(=O)(=O)C(C)(C)C)c2)N=C(C2CCCCC2)c2ccccc21 (racemic) [Example 31, N-[3(R,S)-5-Cyclohexyl-2,3-dihydro-1-methyl-2-oxo-1H-1,4-benzodiazepin-3-yl]N'-[3-(1,1-dimethylethylsulphonylaminocarbonyl)phenyl]urea] | 0.22 | – | – | 6.2 | – |

— US5360802A, “Benzodiazepine derivatives, compositions containing them and their use in therapy” (priority 1992, dated 1994)
